In patent US20110143948A1, “MOLECULAR SIGNATURES AND BIOMARKERS ASSOCIATED WITH MELANOMA AND METHODS OF USE THEREOF” (priority 2008, published 2011):

Test system: ncRNAs (SEQ ID NO 28-89)
Assay: ncRNA arrays of melanocytes, keratinocytes, normal skin, melanoma cell lines and patient samples
Design: species or system human
Conditions: for ncRNA array expression, patient 2: melanoma patient 2 sample compared to normal skin; for ncRNA array expression, patient 3: melanoma patient 3 sample compared to normal skin; for ncRNA array expression, patient 4: melanoma patient 4 sample compared to normal skin; for ncRNA array expression, patient 5: melanoma patient 5 sample compared to normal skin; for ncRNA array expression, patient 6: melanoma patient 6 sample compared to normal skin; for ncRNA array expression, patient 7: melanoma patient 7 sample compared to normal skin; for ncRNA array expression, patient 8: melanoma patient 8 sample compared to normal skin; for ncRNA array expression, patient 9: melanoma patient 9 sample compared to normal skin; for ncRNA array expression, patient 10: melanoma patient 10 sample compared to normal skin; for ncRNA array expression, patient 19: melanoma patient 19 sample compared to normal skin; for ncRNA array expression, patient 20: melanoma patient 20 sample compared to normal skin; for ncRNA array expression, patient 21: melanoma patient 21 sample compared to normal skin; for ncRNA array expression, patient 22: melanoma patient 22 sample compared to normal skin; for ncRNA array expression, patient 23: melanoma patient 23 sample compared to normal skin; for ncRNA array expression, patient 24: melanoma patient 24 sample compared to normal skin; for ncRNA array expression, patient 25: melanoma patient 25 sample compared to normal skin; for ncRNA array expression, patient 26: melanoma patient 26 sample compared to normal skin; for ncRNA array expression, patient 27: melanoma patient 27 sample compared to normal skin; for ncRNA array expression, patient 28: melanoma patient 28 sample compared to normal skin; for ncRNA array expression, patient 29: melanoma patient 29 sample compared to normal skin; for ncRNA array expression, patient 30: melanoma patient 30 sample compared to normal skin
Description: An ncRNA array platform that contains over 10,000 putative (>200 nt) ncRNAs including most of the known ncRNAs in mouse and human was conducted to evaluate ncRNAs within melanoma. Lack of coding potential was estimated by an algorithm that scores various characteristics of protein-coding genes, including open reading frame length, synonymous/non-synonymous base substitution rates and similarity to known proteins. These arrays provide the first generation of tools designed to analyze the dynamic expression of a large subset of ncRNAs in human and mouse and to identify candidate genes for more detailed functional analysis. In addition to the ncRNA content, probes targeting mRNA content from RefSeq are also included, allowing discovery of coordinated expression with associated protein-coding genes. The result of these assays is a list of ncRNA genes (i.e. SEQ ID NO 28-89) and maps of their sequence boundaries. We have profiled total RNA isolated from melanocytes, keratinocytes, normal human skin, melanoma cell lines and melanoma patient samples to identify differentially expressed ncRNAs in cell lines and tissues. ncRNAs expression in all tested samples were compared to either melanocytes or normal skin. We have identified a group of ncRNAs that are specific for (a) melanocytes (b) Keratinocytes (c) Melanoma cell lines (d) Melanoma patients. […] Probe DNA sequences for this array include: AF086032 (SEQ ID NO 107) […] BC071821 (SEQ ID NO 108) […] C AK130193 (SEQ ID NO 109) […] AL109719 (SEQ ID NO 110) […] AF085888 (SEQ ID NO 111) […] T BC033879 (SEQ ID NO 112) […] AA AK024556 (SEQ ID NO 113) […] Probe nomenclature is standard genebank IDs given by NCBI and other organizations.
Keratinocytes specific signatures were subtracted and resultant ncRNAs were validated by qRT-PCR and Northern blots. Results point out the presence of a group of melanoma specific ncRNAs (i.e. SEQ ID NO 28-89).

Substance | ncRNA array expression, patient 2 | ncRNA array expression, patient 3 | ncRNA array expression, patient 4 | ncRNA array expression, patient 5 | ncRNA array expression, patient 6 | ncRNA array expression, patient 7 | ncRNA array expression, patient 8 | ncRNA array expression, patient 9 | ncRNA array expression, patient 10 | ncRNA array expression, patient 19 | ncRNA array expression, patient 20 | ncRNA array expression, patient 21 | ncRNA array expression, patient 22 | ncRNA array expression, patient 23 | ncRNA array expression, patient 24 | ncRNA array expression, patient 25 | ncRNA array expression, patient 26 | ncRNA array expression, patient 27 | ncRNA array expression, patient 28 | ncRNA array expression, patient 29 | further results
SEQ ID NO 50 (GTTATTATAACCAATGCAGACTTTAAAATCCCACCTGGACATCGGGTGAGAGGAGGAGGG; listed as DNA, chemistry not given here; listed as Homo sapiens) | −2.415 | −1.962 | −2.102 | −1.782 | −1.159 | −1.978 | −1.68 | −2.03 | −1.537 | −0.5347 | −1.776 | −1.854 | −1.427 | −0.1575 | −1.434 | −1.804 | −1.952 | −1.707 | −1.738 | −2.317 | ncRNA array expression, patient 30: −0.3312
SEQ ID NO 46 (CTATTGGAGTGCATATAAATTCTTGATAGCACCAGTTCTCAAATATGAGGTGTTAAAAAC; listed as DNA, chemistry not given here; listed as Homo sapiens) | 0.198 | 0.6718 | 1.187 | 0.9853 | 0.04368 | 0.7142 | 1.688 | 5.175 | 1.916 | 2.172 | 0.395 | 0.7531 | −0.4275 | 0.6081 | 0.8675 | 1.428 | 2.919 | 1.824 | 1.253 | 2.278 | ncRNA array expression, patient 30: 0.4452
SEQ ID NO 39 (TGATCCTGTAAATCATGTTTTTGTTTATTCCCCAACACTAACCTCACTCCTTTACTATTC; listed as DNA, chemistry not given here; listed as Homo sapiens) | −1.04 | −0.7852 | −1.149 | −1.017 | −0.9404 | −1.086 | −0.9282 | −1.306 | −1.237 | −0.6006 | −1.263 | −1.232 | −0.301 | −0.164 | −1.204 | −1.66 | −1.776 | −1.287 | −1.448 | −1.374 | ncRNA array expression, patient 30: 0.02356
